The values that follow come from patent US20040087561A1, “Treatment of sexual dysfunction” (priority 2000, published 2004).

The structures appear in SMILES notation.

For test [1], the system named is ovariectomised female Sprague Dawley rats. Nature of the test: Plasma sexual hormone levels (radioimmunoassay) in ovariectomised female rats. The class given is in vivo, rat. On the procedure:
Ovariectomised adult female Sprague Dawley rats (180-200 g) were housed in groups of 6 in a reversed lighting system of 12 h light:dark (lights off 7.00-19.00 h). They were used for the experiments at least two weeks after ovariectomy. Forty eight hours before tests, the animals were primed with oestradiol benzoate (5 μg/0.1 ml in corn oil, s.c.). Progesterone (0.5 mg/0.1 ml, in corn oil, s.c.) was administered 4 h before blood collection, as a positive control. Compound (1) (3-10 mg/kg, i.p.) was administered in 50% 2-hydroxypropyl-β-cyclodextrin, 1 h prior to blood collection. Blood was collected from the trunk, after decapitation. It was immediately centrifuged (3500 r.p.m., 4° C., 5 min) and the plasmas frozen until assayed for hormonal content, using commercially available radioimmunoassay kits (^125I-labelled hormones) for oestradiol, progesterone, LH, FSH and prolactin.

For test [2], the system named is Sprague Dawley male rats. Nature of the test: Sexual behaviour of sexually dysfunctional (fluoxetine-treated) male rats. The test is classed as in vivo, rat. The note with it: fluoxetine 20 mg/kg i.p. 3 days (vs vehicle+vehicle); day 4 Compound (1) 15 mg/kg or yohimbine 2 mg/kg i.p. 1 h before test (vs fluoxetine+vehicle). On the procedure:
Sprague Dawley male rats (Charles River, UK) were kept, 4 rats per cage, in a reversed lighting regime (12:12 hours, lights off at 5.00 h), with free access to food and water. The rats were pre-selected by being presented with a receptive female at […], i.e. every third day (haying 2 clear days between presentations) until completing 6-7 trials of baseline determination. The animals showing consistently vigorous behaviour (ejaculatory latencies <300 s) were chosen for further experiments. Animals were treated for 3 consecutive days with either vehicle (water) or fluoxetine (20 mg/kg, i.p., in a 2 ml/kg dosing volume). On the fourth day, the animals treated with water received vehicle (veh+veh) and the animals treated with fluoxetine received one of the three following treatments: Compound (1) (15 mg/kg, dissolved in 50% 2-hydroxypropyl-β-cyclodextrin in saline), vehicle (cyclodextrine), or yohimbine (2 mg/kg dissolved in water). All treatments were administered i.p. in a 1 ml/kg volume, 1 h before tests.
For all the sexual behaviour tests, the males were placed in an observation arena (50-60 cm diameter), starting 5 hours into the dark cycle and observed under red illumination. Three to 4 minutes after placing the male in the arena, a receptive female (ovariectomised, bearing a 7 mm Silastic implant of oestradiol benzoate) was introduced to the arena and the following parameters noted: Mount Latency: time (in seconds) taken between introduction of female and first mount. A maximum time of 15 minutes (900 seconds) was allowed, and the test terminated if no mounts were recorded within that time (FIG. 16), Ejaculation Latency: time (in seconds) taken from first intromission to ejaculation. A maximum time of 30 minutes (1800 seconds) was given, and the test terminated if ejaculation was not achieved in that time (FIG. 17), Percentage of males achieving ejaculation within 30 minutes was calculated (FIG. 18).
A one-way ANOVA followed by Dunnett's t test was used to compare the fluoxetine+vehicle group and other groups for mount and ejaculatory latencies. Percentage of animals ejaculating was analysed using a Chi-square test followed by Fisher's test. (*: P<0.05, **: P<0.01, ***: P<0.001; n=15-19).

The mark [3] stands for this setting: Compound (1) 3-10 mg/kg 1 h, progesterone 0.5 mg/0.1 ml s.c. 4 h before blood collection, vs vehicle.
[4] abbreviates: Compound (1) 3-10 mg/kg, 1 h before blood collection.

Consider `COc1ccc(C2(CNC(=O)[C@](C)(Cc3c[nH]c4ccccc34)NC(=O)Nc3ccc([N+](=O)[O-])cc3)CCCCC2)nc1` [Compound (1), (S) 3-(1H-Indol-3-yl)-N-[1-(5-methoxy-pyridin-2-yl)-cyclohexyl-methyl]-2-methyl-2-[3-(4-nitro-phenyl)-ureido]-propionamide], for which, in test [1] (setting [3]), the LH plasma levels entry was “no effect” and the progesterone plasma levels result is recorded as “no effect”. Besides, in test [1] (setting [4]), the FSH plasma levels entry was “no effect”, the oestradiol plasma levels result was “no effect” and the prolactin plasma levels entry was “no effect”. In test [2], the Ejaculation latency entry was “significantly decreased”, the Mount latency entry is “significantly decreased” and the “percentage of animals ejaculating (within 30 minutes)” value is listed as “increasing the percentage of animals ejaculating”.
